Assay results published in BindingDB's records for patent US10174013 (Selvita S.A., 2019).

Columns and labels:
[1] = target: Receptor-type tyrosine-protein kinase FLT3 (Homo sapiens, UniProt P36888); test: FLT3 Kinase assay
Protocol: (§1) Selected compounds were also tested for their binding properties against FLT3 kinase mutants using suitable in vitro assays (performed according to standard assays at DiscoveRx Corporation). The compounds show strong binding to the main oncogenic mutants of the FLT3 kinase.

[2] = target: Receptor-type tyrosine-protein kinase FLT3 [D835H] (Homo sapiens, UniProt P36888, D835H); test: FLT3 Kinase assay
Protocol: as §1

[3] = target: Receptor-type tyrosine-protein kinase FLT3 [D835Y] (Homo sapiens, UniProt P36888, D835Y); test: FLT3 Kinase assay
Protocol: as §1

[4] = target: Potassium voltage-gated channel subfamily H member 2 (Homo sapiens, UniProt Q12809); test: Determination of a Possible Activity on hERG
Chain of Potassium voltage-gated channel subfamily H member 2 (Q12809 whole entry): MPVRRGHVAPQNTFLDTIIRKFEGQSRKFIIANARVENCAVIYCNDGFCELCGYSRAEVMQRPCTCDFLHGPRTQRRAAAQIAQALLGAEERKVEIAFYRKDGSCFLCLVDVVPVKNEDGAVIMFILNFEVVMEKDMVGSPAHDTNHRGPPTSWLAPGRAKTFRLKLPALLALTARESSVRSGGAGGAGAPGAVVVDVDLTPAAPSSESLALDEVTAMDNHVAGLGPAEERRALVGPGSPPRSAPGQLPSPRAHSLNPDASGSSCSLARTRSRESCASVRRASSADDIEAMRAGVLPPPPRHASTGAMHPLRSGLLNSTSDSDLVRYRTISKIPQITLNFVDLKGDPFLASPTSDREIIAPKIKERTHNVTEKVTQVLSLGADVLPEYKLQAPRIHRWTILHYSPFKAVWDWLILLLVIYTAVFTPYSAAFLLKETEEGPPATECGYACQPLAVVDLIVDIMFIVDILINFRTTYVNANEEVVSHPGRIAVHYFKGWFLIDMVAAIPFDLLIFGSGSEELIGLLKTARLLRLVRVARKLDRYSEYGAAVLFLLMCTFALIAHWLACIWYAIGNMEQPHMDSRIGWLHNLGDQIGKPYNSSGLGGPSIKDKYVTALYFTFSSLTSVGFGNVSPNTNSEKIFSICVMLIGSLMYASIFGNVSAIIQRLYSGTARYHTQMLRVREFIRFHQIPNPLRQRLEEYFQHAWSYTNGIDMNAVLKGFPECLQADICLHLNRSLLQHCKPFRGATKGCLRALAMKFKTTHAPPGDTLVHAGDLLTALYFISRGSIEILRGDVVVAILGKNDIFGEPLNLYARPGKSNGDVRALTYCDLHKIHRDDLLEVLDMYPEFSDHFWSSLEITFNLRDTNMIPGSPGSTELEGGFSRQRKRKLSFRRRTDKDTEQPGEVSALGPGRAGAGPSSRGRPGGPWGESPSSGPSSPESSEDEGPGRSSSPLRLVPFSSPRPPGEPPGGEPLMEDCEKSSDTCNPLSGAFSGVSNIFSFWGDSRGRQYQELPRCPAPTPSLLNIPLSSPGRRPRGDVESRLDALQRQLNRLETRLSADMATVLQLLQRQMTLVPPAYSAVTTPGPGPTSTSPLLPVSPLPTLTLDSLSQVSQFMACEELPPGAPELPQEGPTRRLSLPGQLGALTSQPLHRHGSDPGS
Protocol: In order to establish whether the compounds of the present invention act on hERG, the following experiment was carried out.The in vitro effects of the compounds indicated in Table 5 on the hERG potassium channel current (a surrogate for Iκr, the rapidly activating, delayed rectifier cardiac potassium current) expressed in mammalian cells were evaluated at room temperature using the QPatch HT (Sophion Bioscience A/S, Denmark), an automatic parallel patch clamp system. Each compound indicated in Table 5 was evaluated at 0.1, 1, 3, 10 and 30 μM with each concentration tested in a minimum of two cells (n≥2). The duration of exposure to each compound concentration was 3 minutes.

SMILES | Kd [1] [nM] | Kd [2] [nM] | Kd [3] [nM] | IC50 [4] [nM]
CC(C)n1c(N2CCNCC2)nc2c([N+](=O)[O-])c(Br)c(Br)cc21 [US10174013, Example 2A] | 130 | 28 | 15 | –
CCn1c(N2CCNCC2)nc2c([N+](=O)[O-])c(Br)c(Br)cc21 [US10174013, Example 1A] | – | – | – | 20400
